Like-named read-outs stand apart in the source and are kept apart here.
How the values were obtained:
hJAK2 = hJAK2 (Homo sapiens (Human), UniProt O60674); assay: hJAK2 LANCE TR-FRET enzymatic assay; type: biochemical; settings: read-out: JAK2 IC50
IKKε = IKKε (Homo sapiens (Human), UniProt Q14164); assay: IKKε TR-FRET enzymatic assay; type: biochemical; settings: read-out: IKKe IC50
TBK1 = TBK1 (Homo sapiens (Human), UniProt Q9UHD2); assay: TBK1 TR-FRET enzymatic assay;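 also: phosphorylation of a biotinylated Ser/Thr peptide by purified full-length recombinant TBK1, read by TR-FRET after 240 min at 25 °C, IC50 is the geometric mean of at least four runs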
Chain of TBK1 (Q9UHD2 whole entry): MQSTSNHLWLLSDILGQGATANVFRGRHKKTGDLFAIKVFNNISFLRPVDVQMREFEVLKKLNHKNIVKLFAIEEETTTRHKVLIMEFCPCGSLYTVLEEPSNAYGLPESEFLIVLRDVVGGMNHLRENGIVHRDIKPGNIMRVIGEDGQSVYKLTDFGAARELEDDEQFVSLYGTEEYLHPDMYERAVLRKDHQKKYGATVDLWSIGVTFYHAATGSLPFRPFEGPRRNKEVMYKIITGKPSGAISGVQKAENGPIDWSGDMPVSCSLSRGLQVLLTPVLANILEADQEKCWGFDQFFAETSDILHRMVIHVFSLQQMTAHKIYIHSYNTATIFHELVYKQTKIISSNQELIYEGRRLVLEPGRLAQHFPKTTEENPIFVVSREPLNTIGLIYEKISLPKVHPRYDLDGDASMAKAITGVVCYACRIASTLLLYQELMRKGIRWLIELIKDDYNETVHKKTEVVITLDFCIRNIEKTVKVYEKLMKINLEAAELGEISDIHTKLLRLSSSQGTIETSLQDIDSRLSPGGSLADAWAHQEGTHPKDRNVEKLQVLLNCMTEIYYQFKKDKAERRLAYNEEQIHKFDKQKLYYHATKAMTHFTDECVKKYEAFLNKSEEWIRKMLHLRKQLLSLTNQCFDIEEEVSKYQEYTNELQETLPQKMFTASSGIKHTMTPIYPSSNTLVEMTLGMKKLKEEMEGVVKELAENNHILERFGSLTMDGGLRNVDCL

[1] = TR-FRET, 2×Km ATP, geometric mean of minimum four determinations

Chain of IKKε (Q14164 whole entry): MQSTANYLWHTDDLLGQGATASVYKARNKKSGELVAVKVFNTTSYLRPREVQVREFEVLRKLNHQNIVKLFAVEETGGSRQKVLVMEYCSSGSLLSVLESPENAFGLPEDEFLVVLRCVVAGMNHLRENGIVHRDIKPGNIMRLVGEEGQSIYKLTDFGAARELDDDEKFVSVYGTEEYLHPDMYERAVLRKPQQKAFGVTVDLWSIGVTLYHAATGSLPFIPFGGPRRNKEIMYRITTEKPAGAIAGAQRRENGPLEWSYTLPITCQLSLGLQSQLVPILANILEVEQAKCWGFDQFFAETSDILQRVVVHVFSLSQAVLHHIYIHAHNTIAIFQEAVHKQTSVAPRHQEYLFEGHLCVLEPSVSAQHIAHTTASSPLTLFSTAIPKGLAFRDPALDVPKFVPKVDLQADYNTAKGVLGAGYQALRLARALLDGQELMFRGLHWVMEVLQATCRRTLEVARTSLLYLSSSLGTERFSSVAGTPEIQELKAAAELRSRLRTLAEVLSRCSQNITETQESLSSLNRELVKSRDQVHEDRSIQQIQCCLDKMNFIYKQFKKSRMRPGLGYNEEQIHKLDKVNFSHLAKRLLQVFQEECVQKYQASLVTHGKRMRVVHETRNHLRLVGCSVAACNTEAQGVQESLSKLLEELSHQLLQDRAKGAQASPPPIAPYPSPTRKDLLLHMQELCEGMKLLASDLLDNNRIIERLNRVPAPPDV
Chain of hJAK2 (O60674 whole entry): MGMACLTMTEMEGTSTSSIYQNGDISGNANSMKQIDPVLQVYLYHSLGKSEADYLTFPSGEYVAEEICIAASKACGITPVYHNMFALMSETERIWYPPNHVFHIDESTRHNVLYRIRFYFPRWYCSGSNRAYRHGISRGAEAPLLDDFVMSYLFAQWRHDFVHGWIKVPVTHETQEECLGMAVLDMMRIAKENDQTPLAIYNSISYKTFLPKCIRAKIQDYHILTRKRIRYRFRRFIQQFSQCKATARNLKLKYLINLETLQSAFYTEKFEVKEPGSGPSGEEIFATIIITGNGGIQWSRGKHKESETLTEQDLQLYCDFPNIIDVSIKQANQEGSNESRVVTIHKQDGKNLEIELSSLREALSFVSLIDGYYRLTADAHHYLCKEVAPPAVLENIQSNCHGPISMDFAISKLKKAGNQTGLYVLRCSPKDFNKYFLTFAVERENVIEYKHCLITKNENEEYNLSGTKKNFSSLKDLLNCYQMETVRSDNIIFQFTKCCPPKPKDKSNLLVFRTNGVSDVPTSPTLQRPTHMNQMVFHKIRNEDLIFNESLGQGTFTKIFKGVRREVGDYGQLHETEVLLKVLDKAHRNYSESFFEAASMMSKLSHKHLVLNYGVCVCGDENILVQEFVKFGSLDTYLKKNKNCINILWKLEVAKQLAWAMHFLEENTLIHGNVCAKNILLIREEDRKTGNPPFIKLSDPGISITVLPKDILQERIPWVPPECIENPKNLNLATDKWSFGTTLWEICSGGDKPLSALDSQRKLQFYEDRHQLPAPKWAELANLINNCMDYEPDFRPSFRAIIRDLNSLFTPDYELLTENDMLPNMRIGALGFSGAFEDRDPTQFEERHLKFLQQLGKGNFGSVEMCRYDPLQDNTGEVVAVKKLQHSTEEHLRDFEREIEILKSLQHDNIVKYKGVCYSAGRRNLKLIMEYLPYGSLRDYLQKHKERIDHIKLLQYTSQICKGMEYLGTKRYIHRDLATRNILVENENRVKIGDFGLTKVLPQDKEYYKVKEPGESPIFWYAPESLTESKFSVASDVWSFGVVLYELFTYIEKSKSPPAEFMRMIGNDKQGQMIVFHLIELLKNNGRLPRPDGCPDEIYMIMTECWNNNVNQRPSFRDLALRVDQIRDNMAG

SMILES | IC50 (hJAK2) | IC50 (IKKε; [1]) | IC50 (TBK1) | IC50 (IKKε)
COc1cc(Nc2ncnc(-c3ccc(O[C@H]4CCN(C(=O)[C@H](C)O)C[C@H]4F)c(C#N)c3)n2)ccc1S(C)(=O)=O [Example 483, 2-(((3R,4S)-3-fluoro-1-((S)-2-hydroxypropanoyl)piperidin-4-yl)oxy)-5-(4-((3-methoxy-4-(methylsulfonyl)phenyl)amino)-1,3,5-triazin-2-yl)benzonitrile] | ≥ 1000 nM | 6 nM | 8 nM | –
CCn1cc(Nc2ncnc(-c3ccc(O[C@H]4CCN(C(=O)CO)C[C@H]4F)c(C#N)c3)n2)nn1 [Example 502, 5-(4-((1-ethyl-1H-1,2,3-triazol-4-yl)amino)-1,3,5-triazin-2-yl)-2-(((3R,4S)-3-fluoro-1-(2-hydroxyacetyl)piperidin-4-yl)oxy)benzonitrile] | ≥ 1000 nM | 29 nM | 28 nM | –
N#Cc1cc(-c2ncnc(Nc3ccc(N4CCN(C5COC5)CC4)cc3)n2)ccc1O[C@H]1CCN(C(=O)c2cnc[nH]2)CC1(F)F [Example 167, (S)-2-((3,3-difluoro-1-(1H-imidazole-5-carbonyl)piperidin-4-yl)oxy)-5-(4-((4-(4-(oxetan-3-yl)piperazin-1-yl)phenyl)amino)-1,3,5-triazin-2-yl)benzonitrile] | 104 nM | – | 3 nM | 1 nM
CO[C@@H](C)C(=O)N1CC[C@H](Oc2ccc(-c3ncnc(Nc4ccc(N5CCN(C6COC6)CC5)cc4)n3)cc2C#N)[C@H](F)C1 [Example 547, 2-(((3R,4S)-3-fluoro-1-((S)-2-methoxypropanoyl)piperidin-4-yl)oxy)-5-(4-((4-(4-(oxetan-3-yl)piperazin-1-yl)phenyl)amino)-1,3,5-triazin-2-yl)benzonitrile] | ≥ 1000 nM | 36 nM | 11 nM | –
COc1cc(Nc2ncnc(-c3ccc(OC4CCOCC4)c(C#N)c3)n2)ccc1N1CCN(C2COC2)CC1 [Example 13, 5-(4-((3-methoxy-4-(4-(oxetan-3-yl)piperazin-1-yl)phenyl)amino)-1,3,5-triazin-2-yl)-2-((tetrahydro-2H-pyran-4-yl)oxy)benzonitrile] | 127 nM | – | 1 nM | 2 nM
N#Cc1cc(-c2ncnc(Nc3ccc(N4CCN(C5COC5)CC4)cc3)n2)ccc1OC1CCN(C(=O)c2cc[nH]c2)CC1 [Example 191, 2-((1-(1H-pyrrole-3-carbonyl)piperidin-4-yl)oxy)-5-(4-((4-(4-(oxetan-3-yl)piperazin-1-yl)phenyl)amino)-1,3,5-triazin-2-yl)benzonitrile] | ≥ 1000 nM | – | 67 nM | 226 nM
N#Cc1cc(-c2ncnc(Nc3ccc(N4CCN(C5COC5)CC4)cc3)n2)ccc1OCC1CCC(=O)N1 (stereo not drawn) [Example 594, 5-(4-((4-(4-(oxetan-3-yl)piperazin-1-yl)phenyl)amino)-1,3,5-triazin-2-yl)-2-((5-oxopyrrolidin-2-yl)methoxy)benzonitrile] | ≥ 1000 nM | 232 nM | 169 nM | –
N#Cc1cc(-c2ncnc(Nc3cccc(N4CCN(C5COC5)CC4)c3)n2)ccc1OC1CCOCC1 [Example 69, 5-(4-((3-(4-(oxetan-3-yl)piperazin-1-yl)phenyl)amino)-1,3,5-triazin-2-yl)-2-((tetrahydro-2H-pyran-4-yl)oxy)benzonitrile] | > 1000 nM | – | 6 nM | 4 nM
Cc1nn(C)c2cc(Nc3ncnc(-c4ccc(O[C@H]5CCN(C(=O)[C@H](C)O)C[C@H]5F)c(C#N)c4)n3)ccc12 [Example 347, 5-(4-((1,3-dimethyl-1H-indazol-6-yl)amino)-1,3,5-triazin-2-yl)-2-(((3R,4S)-3-fluoro-1-((S)-2-hydroxypropanoyl)piperidin-4-yl)oxy)benzonitrile] | ≥ 1000 nM | – | 4 nM | 5 nM
N#Cc1cc(-c2ncnc(Nc3cnn(C(F)F)c3)n2)ccc1O[C@H]1CCNC[C@H]1F [Example 453, 5-(4-((1-(difluoromethyl)-1H-pyrazol-4-yl)amino)-1,3,5-triazin-2-yl)-2-(((3R,4S)-3-fluoropiperidin-4-yl)oxy)benzonitrile] | ≥ 1000 nM | 577 nM | 39 nM | –

More lines, now with the values ahead:

IC50 (hJAK2) | IC50 (IKKε; [1]) | IC50 (TBK1) | IC50 (IKKε) | SMILES
133 nM | – | 139 nM | 285 nM | CS(=O)(=O)N1CC(Oc2ccc(-c3ncnc(Nc4ccc(N5CCN(C6COC6)CC5)cc4)n3)cc2C#N)C1 [Example 273, 2-((1-(methylsulfonyl)azetidin-3-yl)oxy)-5-(4-((4-(4-(oxetan-3-yl)piperazin-1-yl)phenyl)amino)-1,3,5-triazin-2-yl)benzonitrile]
989 nM | – | 2 nM | 1 nM | C[C@H](O)C(=O)N1CC[C@H](Oc2ccc(-c3ncnc(Nc4ccc(N5CCN(C6COC6)CC5)c(C(F)F)c4)n3)cc2C#N)[C@H](F)C1 [Example 371, 5-(4-((3-(difluoromethyl)-4-(4-(oxetan-3-yl)piperazin-1-yl)phenyl)amino)-1,3,5-triazin-2-yl)-2-(((3R,4S)-3-fluoro-1-((S)-2-hydroxypropanoyl)piperidin-4-yl)oxy)benzonitrile]
368 nM | 20 nM | 8 nM | – | Cc1cn[nH]c1C(=O)N1CC[C@H](Oc2ccc(-c3ncnc(Nc4ccc(N5CCN(C6COC6)CC5)cc4)n3)cc2C#N)[C@H](F)C1 [Example 528, 2-(((3R,4S)-3-fluoro-1-(4-methyl-1H-pyrazole-5-carbonyl)piperidin-4-yl)oxy)-5-(4-((4-(4-(oxetan-3-yl)piperazin-1-yl)phenyl)amino)-1,3,5-triazin-2-yl)benzonitrile]
324 nM | 1 nM | 3 nM | – | Cc1cc(Nc2ncnc(-c3ccc(O[C@H]4CCN(C(=O)[C@H](C)O)C[C@H]4F)c(C#N)c3)n2)ccc1C1CCN(C)CC1 [Example 487, 2-(((3R,4S)-3-fluoro-1-((S)-2-hydroxypropanoyl)piperidin-4-yl)oxy)-5-(4-((3-methyl-4-(1-methylpiperidin-4-yl)phenyl)amino)-1,3,5-triazin-2-yl)benzonitrile]
164 nM | – | 3 nM | 2 nM | Cc1cc(C(=O)N2CC[C@H](Oc3ccc(-c4ncnc(Nc5ccc(N6CCN(C7COC7)CC6)cc5)n4)cc3C#N)[C@H](F)C2)[nH]n1 [Example 321, 2-(((3R,4S)-3-fluoro-1-(3-methyl-1H-pyrazole-5-carbonyl)piperidin-4-yl)oxy)-5-(4-((4-(4-(oxetan-3-yl)piperazin-1-yl)phenyl)amino)-1,3,5-triazin-2-yl)benzonitrile]
225 nM | – | 3 nM | 2 nM | N#Cc1cc(-c2ncnc(Nc3ccc(N4CCN(C5COC5)CC4)c(C(F)(F)F)c3)n2)ccc1O[C@H]1CCN(C(=O)CO)C[C@H]1F [Example 368, 2-(((3R,4S)-3-fluoro-1-(2-hydroxyacetyl)piperidin-4-yl)oxy)-5-(4-((4-(4-(oxetan-3-yl)piperazin-1-yl)-3-(trifluoromethyl)phenyl)amino)-1,3,5-triazin-2-yl)benzonitrile]
960 nM | – | 2 nM | 2 nM | CC(C)(O)c1cc(Nc2ncnc(-c3ccc(O[C@H]4CCN(C(=O)CO)C[C@H]4F)c(C#N)c3)n2)ccn1 [Example 397, 2-(((3R,4S)-3-fluoro-1-(2-hydroxyacetyl)piperidin-4-yl)oxy)-5-(4-((2-(2-hydroxypropan-2-yl)pyridin-4-yl)amino)-1,3,5-triazin-2-yl)benzonitrile]
110 nM | 51 nM | 22 nM | – | CC1(C)CNC[C@@H](F)[C@H]1Oc1ccc(-c2ncnc(Nc3ccc(N4CCN(C5COC5)CC4)cc3)n2)cc1C#N [Example 440, 2-(((4S,5R)-5-fluoro-3,3-dimethylpiperidin-4-yl)oxy)-5-(4-((4-(4-(oxetan-3-yl)piperazin-1-yl)phenyl)amino)-1,3,5-triazin-2-yl)benzonitrile]
659 nM | 1 nM | 3 nM | – | C[C@H](O)C(=O)N1CC[C@H](Oc2ccc(-c3ncnc(Nc4ccc5c(c4)CNC5)n3)cc2C#N)[C@H](F)C1 [Example 545, 2-(((3R,4S)-3-fluoro-1-((S)-2-hydroxypropanoyl)piperidin-4-yl)oxy)-5-(4-(isoindolin-5-ylamino)-1,3,5-triazin-2-yl)benzonitrile]
140 nM | 3 nM | 5 nM | – | C[C@@H]1CN(C(=O)CO)CC(F)(F)[C@H]1Oc1ccc(-c2ncnc(Nc3ccc(N4CCN(C5COC5)CC4)cc3)n2)cc1C#N (relative stereo) [Example 432, trans-2-((3,3-difluoro-1-(2-hydroxyacetyl)-5-methylpiperidin-4-yl)oxy)-5-(4-((4-(4-(oxetan-3-yl)piperazin-1-yl)phenyl)amino)-1,3,5-triazin-2-yl)benzonitrile]
128 nM | – | 3 nM | 8 nM | COc1cc(Nc2ncnc(-c3ccc(O[C@@H]4CCN(C(=O)CO)C4)c(C#N)c3)n2)ccc1N1CCN(C2COC2)CC1 [Example 22, (R)-2-((1-(2-hydroxyacetyl)pyrrolidin-3-yl)oxy)-5-(4-((3-methoxy-4-(4-(oxetan-3-yl)piperazin-1-yl)phenyl)amino)-1,3,5-triazin-2-yl)benzonitrile]
707 nM | – | 7 nM | 5 nM | C[C@H](O)C(=O)N1CC[C@H](Oc2ccc(-c3ncnc(Nc4ccc5cnn(C)c5c4)n3)cc2C#N)[C@H](F)C1 [Example 344, 2-(((3R,4S)-3-fluoro-1-((S)-2-hydroxypropanoyl)piperidin-4-yl)oxy)-5-(4-((1-methyl-1H-indazol-6-yl)amino)-1,3,5-triazin-2-yl)benzonitrile]
213 nM | 84 nM | 54 nM | – | N#Cc1cc(-c2ncnc(Nc3ccc(N4CCN(C5COC5)CC4)cc3)n2)ccc1O[C@H]1CCN(C(=O)c2ccnn2CCO)C[C@H]1F [Example 448, 2-(((3R,4S)-3-fluoro-1-(1-(2-hydroxyethyl)-1H-pyrazole-5-carbonyl)piperidin-4-yl)oxy)-5-(4-((4-(4-(oxetan-3-yl)piperazin-1-yl)phenyl)amino)-1,3,5-triazin-2-yl)benzonitrile]

Reference: patent US10040781B2, “Tank-binding kinase inhibitor compounds” (Gilead Sciences, Inc., priority 2014, dated 2018)
